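Interpolation was linear, between the two tested concentrations surrounding the appropriate level; five concentrations were tested over 48 hours in 96-well plates. GI50: concentration for 50% inhibition of growth.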 The source made the active and inactive calls. Cut-off read from the data, not from the text of the source: active = GI50 up to about 1.1 µM and inactive = higher.
Key:
Test in all cases: NCI anticancer screen, dose series, 48 h
RXF 631 = test system: RXF 631
SF-539 = test system: SF-539
OVCAR-3 = test system: OVCAR-3
HCT-15 = test system: HCT-15
M19-MEL = test system: M19-MEL
M14 = test system: M14
SF-295 = test system: SF-295
UACC-257 = test system: UACC-257
786-0 = test system: 786-0
COLO 205 = test system: COLO 205
LOX IMVI = test system: LOX IMVI
HOP-18 = test system: HOP-18
A549 = test system: A549
SNB-75 = test system: SNB-75
UACC-62 = test system: UACC-62
K562 = test system: K562
SN12C = test system: SN12C
TK-10 = test system: TK-10
U-251 = test system: U-251
RXF 393 = test system: RXF 393
SNB-19 = test system: SNB-19
OVCAR-5 = test system: OVCAR-5
HT-29 = test system: HT-29
HCT-116 = test system: HCT-116
NCI-H460 = test system: NCI-H460
SR = test system: SR
CAKI-1 = test system: CAKI-1
DMS-273 = test system: DMS-273
HOP-92 = test system: HOP-92
LXFL 529 = test system: LXFL 529
HCC 2998 = test system: HCC 2998
RPMI-8226 = test system: RPMI-8226
SK-OV-3 = test system: SK-OV-3
HOP-62 = test system: HOP-62
MOLT-4 = test system: MOLT-4
SK-MEL-28 = test system: SK-MEL-28
CCRF-CEM = test system: CCRF-CEM
DMS-114 = test system: DMS-114
KM-20L2 = test system: KM-20L2
DLD-1 = test system: DLD-1
OVCAR-4 = test system: OVCAR-4
A498 = test system: A498
ACHN = test system: ACHN
Malme-3M = test system: Malme-3M
KM12 = test system: KM12
UO-31 = test system: UO-31
NCI-H23 = test system: NCI-H23
EKVX = test system: EKVX
SF-268 = test system: SF-268
SK-MEL-2 = test system: SK-MEL-2
NCI-H226 = test system: NCI-H226
SK-MEL-5 = test system: SK-MEL-5
HL-60 = test system: HL-60
SW-620 = test system: SW-620
SNB-78 = test system: SNB-78
IGROV-1 = test system: IGROV-1
OVCAR-8 = test system: OVCAR-8

Measured: GI50

Cn1c(=O)cc2[nH]c3ccccc3n2c1=O
inactive: RXF 631 29.6 µM | SF-539 20.3 µM | OVCAR-3 > 100 µM | M19-MEL 33.7 µM | M14 72.9 µM | SF-295 > 100 µM | UACC-257 > 100 µM | 786-0 24 µM | COLO 205 14.2 µM | LOX IMVI 20.2 µM | HOP-18 61.7 µM | A549 > 100 µM | SNB-75 > 100 µM | UACC-62 > 100 µM | K562 42.1 µM | SN12C > 10 µM | TK-10 81.7 µM | U-251 16.2 µM | RXF 393 28.8 µM | SNB-19 > 100 µM | OVCAR-5 > 100 µM | HT-29 49.3 µM | HCT-116 > 10 µM | NCI-H460 57.5 µM | SR > 100 µM | CAKI-1 > 100 µM | DMS-273 25.5 µM | HOP-92 > 100 µM | LXFL 529 42.8 µM | HCC 2998 72.8 µM | RPMI-8226 > 100 µM | SK-OV-3 48.8 µM | HOP-62 > 100 µM | MOLT-4 > 100 µM | SK-MEL-28 > 100 µM | CCRF-CEM 41.5 µM | DMS-114 > 100 µM | KM-20L2 77.4 µM | DLD-1 40.2 µM | OVCAR-4 27 µM | A498 > 100 µM | ACHN 69.7 µM | Malme-3M > 100 µM | KM12 > 100 µM | UO-31 93.3 µM | NCI-H23 > 100 µM | EKVX > 100 µM | SF-268 > 100 µM | SK-MEL-2 > 100 µM | NCI-H226 55.6 µM | SK-MEL-5 > 100 µM | HL-60 > 100 µM | SW-620 22.7 µM | SNB-78 86.5 µM | IGROV-1 > 100 µM | OVCAR-8 43.8 µM
33.7 µM: HCT-15
